US9592221B2, “Antibacterial agents: aryl myxopyronin derivatives” (priority 2012, dated 2017)
Values after ≈ are worked out from the molar mass of the structure shown.

Assays:
[1] = biological target: M. tuberculosis RNA polymerase core enzyme, M. tuberculosis σ^A (Mycobacterium tuberculosis, UniProt P9WGY7+P9WGY9); experiment: Fluorescence-detected RNA polymerase assay, M. tuberculosis RNA polymerase; type: biochemical; details: read-out: IC50 M. tuberculosis RNAP
[2] = system: Acinetobacter baumannii ATCC 19606; experiment: MIC, spiral gradient endpoint assay, A. baumannii; type: cell-based; details: ATCC19606; Acinetobacter baumannii ATCC 19606
[3] = biological target: E. coli RNA polymerase σ^70 holoenzyme (Escherichia coli, UniProt P0A8T7+P0A8V2); experiment: Fluorescence-detected RNA polymerase assay, E. coli RNA polymerase; type: biochemical; details: read-out: IC50 E. coli RNAP
[4] = system: Escherichia coli D21f2tolC; experiment: MIC, spiral gradient endpoint assay, E. coli D21f2tolC; type: cell-based; details: Escherichia coli, D21F2TOLC, read-out: MIC E. coli D21f2toIC
[5] = system: Staphylococcus aureus ATCC 12600; experiment: MIC, spiral gradient endpoint assay, S. aureus ATCC 12600; type: cell-based; details: ATCC12600; Staphylococcus aureus ATCC 12600
[6] = system: Bacillus anthracis Vollum 1b; experiment: microbe, parasite or virus in culture; type: cell-based; details: Bacillus anthracis, VOLLUM1B, read-out: MIC B. anthracis Vollum-1b
[7] = system: Mycobacterium tuberculosis H37Rv; experiment: MIC, microplate Alamar Blue assay, M. tuberculosis; type: cell-based
[8] = system: Burkholderia pseudomallei Human/Blood/OH/US/1994; experiment: microbe, parasite or virus in culture; type: cell-based; details: Burkholderia pseudomallei, read-out: MIC B. pseudomallei Human/Blood/OH
Burkholderia mallei CHN7 = experiment: microbe, parasite or virus in culture; type: cell-based; details: Burkholderia mallei, CHN7, read-out: MIC B. mallei CHN7
[9] = system: Francisella tularensis SCHU4; experiment: microbe, parasite or virus in culture; type: cell-based; details: Francisella tularensis, SCHU4, read-out: MIC F. tularensis SCHU4
Brucella melitensis 16M = experiment: microbe, parasite or virus in culture; type: cell-based; details: Brucella melitensis, 16M, read-out: MIC B. melitensis 16M
Yersinia pestis C092 = experiment: microbe, parasite or virus in culture; type: cell-based; details: Yersinia pestis, C092, read-out: MIC Y. pestis C092

Chain of M. tuberculosis RNA polymerase core enzyme, M. tuberculosis σ^A (P9WGI1 whole entry): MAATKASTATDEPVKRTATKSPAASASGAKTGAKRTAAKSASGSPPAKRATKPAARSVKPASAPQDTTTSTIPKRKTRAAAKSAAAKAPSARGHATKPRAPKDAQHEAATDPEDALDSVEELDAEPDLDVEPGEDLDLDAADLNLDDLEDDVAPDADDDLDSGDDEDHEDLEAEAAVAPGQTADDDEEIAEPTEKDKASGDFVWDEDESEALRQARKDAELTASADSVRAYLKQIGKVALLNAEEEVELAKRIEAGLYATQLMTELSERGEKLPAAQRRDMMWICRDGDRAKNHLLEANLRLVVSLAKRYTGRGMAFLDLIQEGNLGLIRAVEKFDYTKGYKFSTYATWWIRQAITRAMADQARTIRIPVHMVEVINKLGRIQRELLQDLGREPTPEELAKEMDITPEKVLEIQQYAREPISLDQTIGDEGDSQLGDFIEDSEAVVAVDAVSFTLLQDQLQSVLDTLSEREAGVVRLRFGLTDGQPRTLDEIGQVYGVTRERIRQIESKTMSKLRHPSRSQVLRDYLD
Chain of M. tuberculosis RNA polymerase core enzyme, M. tuberculosis σ^A (P9WGY5 whole entry, further chain): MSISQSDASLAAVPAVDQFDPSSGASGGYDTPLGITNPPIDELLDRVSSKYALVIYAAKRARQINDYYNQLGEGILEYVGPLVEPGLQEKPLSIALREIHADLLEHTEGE
Chain of M. tuberculosis RNA polymerase core enzyme, M. tuberculosis σ^A (P9WGY7 whole entry): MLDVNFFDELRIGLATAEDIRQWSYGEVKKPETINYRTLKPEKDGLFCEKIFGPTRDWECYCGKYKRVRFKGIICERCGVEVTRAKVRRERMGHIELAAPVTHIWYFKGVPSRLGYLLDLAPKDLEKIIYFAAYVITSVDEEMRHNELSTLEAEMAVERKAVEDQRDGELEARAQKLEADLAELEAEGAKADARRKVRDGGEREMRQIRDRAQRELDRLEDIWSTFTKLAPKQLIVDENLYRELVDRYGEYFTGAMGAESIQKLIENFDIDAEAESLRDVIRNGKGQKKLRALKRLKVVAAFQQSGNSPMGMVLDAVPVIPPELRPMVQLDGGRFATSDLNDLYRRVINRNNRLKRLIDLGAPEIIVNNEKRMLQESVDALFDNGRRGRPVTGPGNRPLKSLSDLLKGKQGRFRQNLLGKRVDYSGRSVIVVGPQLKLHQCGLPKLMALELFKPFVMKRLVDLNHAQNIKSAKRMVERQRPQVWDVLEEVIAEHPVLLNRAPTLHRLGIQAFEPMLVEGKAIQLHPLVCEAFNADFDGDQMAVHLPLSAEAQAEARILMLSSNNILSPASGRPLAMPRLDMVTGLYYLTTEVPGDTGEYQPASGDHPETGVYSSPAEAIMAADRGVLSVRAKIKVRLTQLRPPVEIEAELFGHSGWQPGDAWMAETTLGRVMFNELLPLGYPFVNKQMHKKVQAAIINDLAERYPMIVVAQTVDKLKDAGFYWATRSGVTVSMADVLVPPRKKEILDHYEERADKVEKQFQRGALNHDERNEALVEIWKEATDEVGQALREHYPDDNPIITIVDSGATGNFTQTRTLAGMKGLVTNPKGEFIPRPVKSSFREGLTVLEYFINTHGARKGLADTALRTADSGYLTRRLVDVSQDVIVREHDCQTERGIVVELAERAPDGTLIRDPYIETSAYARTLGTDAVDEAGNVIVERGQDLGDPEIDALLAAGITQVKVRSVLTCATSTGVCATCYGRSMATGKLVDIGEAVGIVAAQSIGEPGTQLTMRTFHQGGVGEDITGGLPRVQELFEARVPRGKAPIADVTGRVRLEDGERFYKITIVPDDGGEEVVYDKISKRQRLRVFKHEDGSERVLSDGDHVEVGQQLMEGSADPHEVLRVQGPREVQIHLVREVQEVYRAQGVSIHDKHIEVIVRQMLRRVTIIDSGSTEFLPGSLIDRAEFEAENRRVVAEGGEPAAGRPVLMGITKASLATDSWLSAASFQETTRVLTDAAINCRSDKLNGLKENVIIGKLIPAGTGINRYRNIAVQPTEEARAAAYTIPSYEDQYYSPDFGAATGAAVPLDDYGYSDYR
Chain of M. tuberculosis RNA polymerase core enzyme, M. tuberculosis σ^A (P9WGY9 whole entry): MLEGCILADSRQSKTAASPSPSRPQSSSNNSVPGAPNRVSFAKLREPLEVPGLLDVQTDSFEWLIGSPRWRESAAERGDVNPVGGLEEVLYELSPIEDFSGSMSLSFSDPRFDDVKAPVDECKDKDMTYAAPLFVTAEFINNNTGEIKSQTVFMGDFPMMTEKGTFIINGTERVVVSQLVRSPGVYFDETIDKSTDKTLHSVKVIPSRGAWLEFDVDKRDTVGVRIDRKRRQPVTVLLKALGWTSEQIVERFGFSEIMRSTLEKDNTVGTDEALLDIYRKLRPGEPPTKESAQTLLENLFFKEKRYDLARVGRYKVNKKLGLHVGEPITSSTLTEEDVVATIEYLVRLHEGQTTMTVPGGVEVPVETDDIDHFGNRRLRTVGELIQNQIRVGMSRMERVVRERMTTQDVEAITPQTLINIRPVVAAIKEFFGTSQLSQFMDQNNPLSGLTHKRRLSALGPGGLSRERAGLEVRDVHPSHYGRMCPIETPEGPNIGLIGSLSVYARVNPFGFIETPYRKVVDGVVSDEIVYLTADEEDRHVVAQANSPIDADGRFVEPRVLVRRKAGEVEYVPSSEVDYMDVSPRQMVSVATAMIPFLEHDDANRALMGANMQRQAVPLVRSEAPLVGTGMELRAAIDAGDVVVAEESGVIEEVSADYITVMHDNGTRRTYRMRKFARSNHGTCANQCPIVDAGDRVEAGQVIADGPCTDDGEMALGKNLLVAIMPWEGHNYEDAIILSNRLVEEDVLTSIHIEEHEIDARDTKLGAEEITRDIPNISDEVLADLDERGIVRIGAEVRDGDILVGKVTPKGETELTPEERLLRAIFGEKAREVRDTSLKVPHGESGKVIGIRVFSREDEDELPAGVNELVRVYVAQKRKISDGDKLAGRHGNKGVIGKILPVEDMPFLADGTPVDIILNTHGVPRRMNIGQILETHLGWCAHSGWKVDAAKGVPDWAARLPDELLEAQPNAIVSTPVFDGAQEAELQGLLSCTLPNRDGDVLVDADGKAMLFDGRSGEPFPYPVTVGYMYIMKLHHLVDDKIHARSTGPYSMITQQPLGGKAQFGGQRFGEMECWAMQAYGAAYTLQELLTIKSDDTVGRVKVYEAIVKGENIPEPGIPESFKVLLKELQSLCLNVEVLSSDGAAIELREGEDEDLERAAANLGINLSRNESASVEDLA
Chain of M. tuberculosis RNA polymerase core enzyme, M. tuberculosis σ^A (P9WGZ1 whole entry, further chain): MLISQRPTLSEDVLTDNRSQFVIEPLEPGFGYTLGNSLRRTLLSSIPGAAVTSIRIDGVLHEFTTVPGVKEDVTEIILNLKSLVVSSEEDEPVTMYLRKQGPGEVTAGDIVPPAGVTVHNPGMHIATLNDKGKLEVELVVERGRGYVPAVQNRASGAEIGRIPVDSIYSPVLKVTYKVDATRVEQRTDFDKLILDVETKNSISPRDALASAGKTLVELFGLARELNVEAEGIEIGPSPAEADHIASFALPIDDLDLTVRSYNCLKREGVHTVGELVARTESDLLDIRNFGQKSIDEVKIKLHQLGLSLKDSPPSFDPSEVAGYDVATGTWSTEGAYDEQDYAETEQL

| SMILES | IC50 [1] [nM] | MIC [2] [µg/mL] | IC50 [3] [nM] | MIC [4] [µg/mL] | MIC [5] [µg/mL] | MIC [6] [µg/mL] | MIC [7] [µg/mL] | MIC [8] [µg/mL] | MIC (Burkholderia mallei CHN7) [µg/mL] | MIC [9] [µg/mL] | MIC (Brucella melitensis 16M) [µg/mL] | MIC (Yersinia pestis C092) [µg/mL] |
| --- | --- | --- | --- | --- | --- | --- | --- | --- | --- | --- | --- | --- |
| COC(=O)N/C=C/CCC(C)c1cc(O)c(C(=O)C(C)=Cc2ccc(CCCO)s2)c(=O)o1 (mixture of isomers) [APY94, methyl ((1E)-5-(4-hydroxy-3-(3-(5-(3-hydroxypropyl)thiophen-2-yl)-2-methylacryloyl)-2-oxo-2H-pyran-6-yl)hex-1-en-1-yl)carbamate] | > 6000 | > 40 | > 6000 | 3 | > 40 | – | – | – | – | – | – | – |
| COCCCc1ccc(C=C(C)C(=O)c2c(O)cc(C(C)CC/C=C/NC(=O)OC)oc2=O)s1 (mixture of isomers) [APY100, methyl ((1E)-5-(4-hydroxy-3-(3-(5-(3-methoxypropyl)thiophen-2-yl)-2-methylacryloyl)-2-oxo-2H-pyran-6-yl)hex-1-en-1-yl)carbamate] | 1000 | > 40 | 60 | 1 | > 40 | – | – | – | – | – | – | – |
| COC(=O)N/C=C/CCC(C)c1cc(O)c(C(=O)C(C)=Cc2ccc(OC)s2)c(=O)o1 (mixture of isomers) [APY101, methyl ((1E)-5-(4-hydroxy-3-(3-(5-methoxythiophen-2-yl)-2-methylacryloyl)-2-oxo-2H-pyran-6-yl)hex-1-en-1-yl)carbamate] | > 6000 | > 40 | > 6000 | 3 | > 40 | – | – | – | – | – | – | – |
| COC(=O)N/C=C/CCC(C)c1cc(O)c(C(=O)C(C)=Cc2cc3cc(CCC(C)C)ccc3n2C)c(=O)o1 (mixture of isomers) [APY105, methyl ((1E)-5-(4-hydroxy-3-(3-(5-isopentyl-1-methyl-1H-indol-2-yl)-2-methylacryloyl)-2-oxo-2H-pyran-6-yl)hex-1-en-1-yl)carbamate] | 5000 | > 40 | 40 | 2 | > 40 | – | – | – | – | – | – | – |
| COCc1ccc(C=C(C)C(=O)c2c(O)cc(C(C)CC/C=C/NC(=O)OC)oc2=O)s1 (mixture of isomers) [APY106, methyl ((1E)-5-(4-hydroxy-3-(3-(5-(methoxymethyl)thiophen-2-yl)-2-methylacryloyl)-2-oxo-2H-pyran-6-yl)hex-1-en-1-yl)carbamate] | 4000 | > 40 | 500 | 3 | > 40 | – | – | – | – | – | – | – |
| COC(=O)N/C=C/CCC(C)c1cc(O)c(C(=O)C(C)=Cc2ccc(CCC(F)(F)F)cc2C)c(=O)o1 (mixture of isomers) [APY127, methyl ((1E)-5-(4-hydroxy-3-(2-methyl-3-(2-methyl-4-(3,3,3-trifluoropropyl)phenyl)acryloyl)-2-oxo-2H-pyran-6-yl)hex-1-en-1-yl)carbamate] | – | > 40 | 70 | 0.4 | 2 | 6 | 50 | 50 | 50 | > 50 | 50 | 50 |
| CCCOc1ccc(C=C(C)C(=O)c2c(O)cc(C(C)CC/C=C/NC(=O)OC)oc2=O)c(C)c1 (mixture of isomers) [APY128, methyl ((1E)-5-(4-hydroxy-3-(2-methyl-3-(2-methyl-4-propoxyphenyl)acryloyl)-2-oxo-2H-pyran-6-yl)hex-1-en-1-yl)carbamate] | – | > 40 | 500 | 0.6 | 4 | 10 | 30 | > 50 | > 50 | > 50 | > 50 | > 50 |
| CCCCOc1ccc(C=C(C)C(=O)c2c(O)cc(C(C)CC/C=C/NC(=O)OC)oc2=O)c(C)c1 (mixture of isomers) [APY129, methyl ((1E)-5-(3-(3-(4-butoxy-2-methylphenyl)-2-methylacryloyl)-4-hydroxy-2-oxo-2H-pyran-6-yl)hex-1-en-1-yl)carbamate] | – | 40 | 50 | 0.3 | 2 | 3 | 30 | > 50 | 50 | > 50 | 10 | 30 |
| COC(=O)N/C=C/CCC(C)c1cc(O)c(C(=O)C(C)=Cc2ccc(OC(C)C)cc2C)c(=O)o1 (mixture of isomers) [APY130, methyl ((1E)-5-(4-hydroxy-3-(3-(4-isopropoxy-2-methylphenyl)-2-methylacryloyl)-2-oxo-2H-pyran-6-yl)hex-1-en-1-yl)carbamate] | – | > 40 | 200 | 2 | 3 | 10 | 30 | > 50 | > 50 | > 50 | > 50 | > 50 |
| COC(=O)N/C=C/CCC(C)c1cc(O)c(C(=O)C(C)=Cc2ccc(OCC(F)F)cc2C)c(=O)o1 (mixture of isomers) [APY131, methyl ((1E)-5-(3-(3-(4-(2,2-difluoroethoxy)-2-methylphenyl)-2-methylacryloyl)-4-hydroxy-2-oxo-2H-pyran-6-yl)hex-1-en-1-yl)carbamate] | – | > 40 | 200 | 0.7 | 8 | 30 | 30 | > 50 | > 50 | > 50 | > 50 | > 50 |
| COC(=O)N/C=C/CCC(C)c1cc(O)c(C(=O)C(C)=Cc2ccc(OCC(F)F)cc2)c(=O)o1 (mixture of isomers) [APY132, methyl ((1E)-5-(3-(3-(4-(2,2-difluoroethoxy)phenyl)-2-methylacryloyl)-4-hydroxy-2-oxo-2H-pyran-6-yl)hex-1-en-1-yl)carbamate] | – | > 40 | 200 | 0.7 | 5 | 30 | 10 | > 50 | > 50 | > 50 | 30 | > 50 |
| CCCCc1ncc(C=C(C)C(=O)c2c(O)cc(C(C)CC/C=C/NC(=O)OC)oc2=O)s1 (mixture of isomers) [APY136, methyl ((1E)-5-(3-(3-(2-butylthiazol-5-yl)-2-methylacryloyl)-4-hydroxy-2-oxo-2H-pyran-6-yl)hex-1-en-1-yl)carbamate] | – | > 40 | 20 | 0.2 | 1 | 10 | 6 | 50 | 30 | > 50 | 6 | 10 |
| COC(=O)N/C=C/CCC(C)c1cc(O)c(C(=O)C(C)=Cc2cnc(CCC(C)C)s2)c(=O)o1 (mixture of isomers) [APY137, methyl ((1E)-5-(4-hydroxy-3-(3-(2-isopentylthiazol-5-yl)-2-methylacryloyl)-2-oxo-2H-pyran-6-yl)hex-1-en-1-yl)carbamate] | – | > 40 | 10 | 0.08 | 1 | 3 | 6 | 30 | 10 | 50 | 6 | 10 |
| COC(=O)N/C=C/CCC(C)c1cc(O)c(C(=O)C(C)=Cc2ccc(OCC(F)F)s2)c(=O)o1 (mixture of isomers) [APY138, methyl ((1E)-5-(3-(3-(5-(2,2-difluoroethoxy)thiophen-2-yl)-2-methylacryloyl)-4-hydroxy-2-oxo-2H-pyran-6-yl)hex-1-en-1-yl)carbamate] | – | > 40 | 300 | 0.5 | 10 | 50 | 10 | > 50 | > 50 | > 50 | 50 | 50 |
| COC(=O)N/C=C/CCC(C)c1cc(O)c(C(=O)C(C)=Cc2ccc(OCCC(F)(F)F)s2)c(=O)o1 (mixture of isomers) [APY139, methyl ((1E)-5-(4-hydroxy-3-(2-methyl-3-(5-(3,3,3-trifluoropropoxy)thiophen-2-yl)acryloyl)-2-oxo-2H-pyran-6-yl)hex-1-en-1-yl)carbamate] | – | > 40 | 30 | 0.2 | 2 | 6 | 6 | > 50 | 50 | > 50 | 10 | 10 |
| CCC(C)Oc1ccc2c(c1)cc(C=C(C)C(=O)c1c(O)cc(C(C)CC/C=C/NC(=O)OC)oc1=O)n2C (centres unmarked) [APY122, methyl ((1E)-5-(3-(3-(5-(sec-butoxy)-1-methyl-1H-indol-2-yl)-2-methylacryloyl)-4-hydroxy-2-oxo-2H-pyran-6-yl)hex-1-en-1-yl)carbamate] | – | > 40 | 100 | 0.5 (≈ 0.932 µM) | > 40 | 50 (≈ 93.2 µM) | > 50 | > 50 | > 50 | 50 (≈ 93.2 µM) | > 50 | > 50 |
